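GI50 = concentration required for 50% inhibition of growth. The concentration for full growth arrest is given as TGI.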
How the values were obtained:
Assay in all cases: NCI tumour cell line growth inhibition, 384-well format
786-0 renal = tested on: 786-0 renal
A498 renal = tested on: A498 renal
A549 NSCLC = tested on: A549 NSCLC
ACHN renal = tested on: ACHN renal
CAKI-1 renal = tested on: CAKI-1 renal
CCRF-CEM leukemia = tested on: CCRF-CEM leukemia
COLO 205 colon = tested on: COLO 205 colon
DU-145 prostate = tested on: DU-145 prostate
HCC-2998 colon = tested on: HCC-2998 colon
HCT-116 colon = tested on: HCT-116 colon
HCT-15 colon = tested on: HCT-15 colon
HL-60(TB) leukemia = tested on: HL-60(TB) leukemia
HOP-92 NSCLC = tested on: HOP-92 NSCLC
HT29 colon = tested on: HT29 colon
IGROV1 ovarian = tested on: IGROV1 ovarian
K-562 leukemia = tested on: K-562 leukemia
KM12 colon = tested on: KM12 colon
LOX IMVI melanoma = tested on: LOX IMVI melanoma
M14 melanoma = tested on: M14 melanoma
MALME-3M melanoma = tested on: MALME-3M melanoma
MCF7 breast = tested on: MCF7 breast
MDA-MB-231 breast = tested on: MDA-MB-231 breast
MDA-MB-435 melanoma = tested on: MDA-MB-435 melanoma
MDA-MB-468 breast = tested on: MDA-MB-468 breast
MOLT-4 leukemia = tested on: MOLT-4 leukemia
NCI-H226 lung = tested on: NCI-H226 lung
NCI-H23 lung = tested on: NCI-H23 lung
NCI-H322M lung = tested on: NCI-H322M lung
NCI-H460 NSCLC = tested on: NCI-H460 NSCLC
NCI-H522 lung = tested on: NCI-H522 lung
NCI/ADR-RES ovarian = tested on: NCI/ADR-RES ovarian
OVCAR-3 ovarian = tested on: OVCAR-3 ovarian
OVCAR-4 ovarian = tested on: OVCAR-4 ovarian
OVCAR-5 ovarian = tested on: OVCAR-5 ovarian
OVCAR-8 ovarian = tested on: OVCAR-8 ovarian
PC-3 prostate = tested on: PC-3 prostate
RPMI-8226 leukemia = tested on: RPMI-8226 leukemia
RXF 393 renal = tested on: RXF 393 renal
SF-268 CNS = tested on: SF-268 CNS
SF-295 CNS = tested on: SF-295 CNS
SF-539 CNS = tested on: SF-539 CNS
SK-MEL-2 melanoma = tested on: SK-MEL-2 melanoma
SK-MEL-28 melanoma = tested on: SK-MEL-28 melanoma
SK-MEL-5 melanoma = tested on: SK-MEL-5 melanoma
SK-OV-3 ovarian = tested on: SK-OV-3 ovarian
SN12C renal = tested on: SN12C renal
SNB-19 CNS = tested on: SNB-19 CNS
SR leukemia = tested on: SR leukemia
SW-620 colon = tested on: SW-620 colon
T-47D breast = tested on: T-47D breast
TK-10 renal = tested on: TK-10 renal
U251 glioblastoma = tested on: U251 glioblastoma
UACC-257 melanoma = tested on: UACC-257 melanoma
UACC-62 melanoma = tested on: UACC-62 melanoma
UO-31 renal = tested on: UO-31 renal

CCc1cc(Nc2nccc(-c3c(-c4ccc(OC)c(C(=O)Nc5c(F)cccc5F)c4)nc4ccccn34)n2)c(OC)cc1N1CCC(N2CCN(S(C)(=O)=O)CC2)CC1
GI50 ([…]-0 renal): > 100 µM
TGI (786-0 renal): > 100 µM
GI50 (A498 renal): > 100 µM
TGI (A498 renal): > 100 µM
GI50 (A549 NSCLC): > 100 µM
TGI (A549 NSCLC): > 100 µM
GI50 (ACHN renal): > 100 µM
TGI (ACHN renal): > 100 µM
GI50 (CAKI-1 renal): > 100 µM
TGI (CAKI-1 renal): > 100 µM
GI50 (CCRF-CEM leukemia): > 100 µM
TGI (CCRF-CEM leukemia): > 100 µM
GI50 (COLO 205 colon): > 100 µM
TGI (COLO 205 colon): > 100 µM
GI50 (DU-145 prostate): > 100 µM
TGI (DU-145 prostate): > 100 µM
GI50 (HCC-2998 colon): > 100 µM
TGI (HCC-2998 colon): > 100 µM
GI50 (HCT-116 colon): > 100 µM
TGI (HCT-116 colon): > 100 µM
GI50 (HCT-15 colon): > 100 µM
TGI (HCT-15 colon): > 100 µM
GI50 (HL-60(TB) leukemia): > 100 µM
TGI (HL-60(TB) leukemia): > 100 µM
GI50 (HOP-92 NSCLC): > 100 µM
TGI (HOP-92 NSCLC): > 100 µM
GI50 (HT29 colon): > 100 µM
TGI (HT29 colon): > 100 µM
GI50 (IGROV1 ovarian): > 100 µM
TGI (IGROV1 ovarian): > 100 µM
GI50 (K-562 leukemia): > 100 µM
TGI (K-562 leukemia): > 100 µM
GI50 (KM12 colon): > 100 µM
TGI (KM12 colon): > 100 µM
GI50 (LOX IMVI melanoma): > 100 µM
TGI (LOX IMVI melanoma): > 100 µM
GI50 (M14 melanoma): > 100 µM
TGI (M14 melanoma): > 100 µM
GI50 (MALME-3M melanoma): > 100 µM
TGI (MALME-3M melanoma): > 100 µM
GI50 (MCF7 breast): > 100 µM
TGI (MCF7 breast): > 100 µM
GI50 (MDA-MB-231 breast): 18.6 µM
TGI (MDA-MB-231 breast): > 100 µM
GI50 (MDA-MB-435 melanoma): > 100 µM
TGI (MDA-MB-435 melanoma): > 100 µM
GI50 (MDA-MB-468 breast): 0.935 µM
TGI (MDA-MB-468 breast): > 100 µM
GI50 (MOLT-4 leukemia): 0.645 µM
TGI (MOLT-4 leukemia): > 100 µM
GI50 (NCI-H226 lung): > 100 µM
TGI (NCI-H226 lung): > 100 µM
GI50 (NCI-H23 lung): > 100 µM
TGI (NCI-H23 lung): > 100 µM
GI50 (NCI-H322M lung): > 100 µM
TGI (NCI-H322M lung): > 100 µM
GI50 (NCI-H460 NSCLC): > 100 µM
TGI (NCI-H460 NSCLC): > 100 µM
GI50 (NCI-H522 lung): > 100 µM
TGI (NCI-H522 lung): > 100 µM
GI50 (NCI/ADR-RES ovarian): > 100 µM
TGI (NCI/ADR-RES ovarian): > 100 µM
GI50 (OVCAR-3 ovarian): > 100 µM
TGI (OVCAR-3 ovarian): > 100 µM
GI50 (OVCAR-4 ovarian): > 100 µM
TGI (OVCAR-4 ovarian): > 100 µM
GI50 (OVCAR-5 ovarian): > 100 µM
TGI (OVCAR-5 ovarian): > 100 µM
GI50 (OVCAR-8 ovarian): 1.79 µM
TGI (OVCAR-8 ovarian): > 100 µM
GI50 (PC-3 prostate): > 100 µM
TGI (PC-3 prostate): > 100 µM
GI50 (RPMI-8226 leukemia): 0.908 µM
TGI (RPMI-8226 leukemia): > 100 µM
GI50 (RXF 393 renal): 0.75 µM
TGI (RXF 393 renal): > 100 µM
GI50 (SF-268 CNS): > 100 µM
TGI (SF-268 CNS): > 100 µM
GI50 (SF-295 CNS): > 100 µM
TGI (SF-295 CNS): > 100 µM
GI50 (SF-539 CNS): > 100 µM
TGI (SF-539 CNS): > 100 µM
GI50 (SK-MEL-2 melanoma): > 100 µM
TGI (SK-MEL-2 melanoma): > 100 µM
GI50 (SK-MEL-28 melanoma): > 100 µM
TGI (SK-MEL-28 melanoma): > 100 µM
GI50 (SK-MEL-5 melanoma): > 100 µM
TGI (SK-MEL-5 melanoma): > 100 µM
GI50 (SK-OV-3 ovarian): > 100 µM
TGI (SK-OV-3 ovarian): > 100 µM
GI50 (SN12C renal): > 100 µM
TGI (SN12C renal): > 100 µM
GI50 (SNB-19 CNS): > 100 µM
TGI (SNB-19 CNS): > 100 µM
GI50 (SR leukemia): 0.932 µM
TGI (SR leukemia): > 100 µM
GI50 (SW-620 colon): > 100 µM
TGI (SW-620 colon): > 100 µM
GI50 (T-47D breast): 0.587 µM
TGI (T-47D breast): > 100 µM
GI50 (TK-10 renal): > 100 µM
TGI (TK-10 renal): > 100 µM
GI50 (U251 glioblastoma): > 100 µM
TGI (U251 glioblastoma): > 100 µM
GI50 (UACC-257 melanoma): > 100 µM
TGI (UACC-257 melanoma): > 100 µM
GI50 (UACC-62 melanoma): > 100 µM
TGI (UACC-62 melanoma): > 100 µM
GI50 (UO-31 renal): > 100 µM
TGI (UO-31 renal): > 100 µM
